Experimental data reported in article PMC6095608 (PLoS ONE, 2018).

Columns and labels:
OCT1 [1] = target: T1, OCT1 (Homo sapiens, UniProt O15245); assay: Inhibition of net [14C]-metformin uptake in MDCK-OCT1 cells; assay type: cell-based; settings: 50 μM metformin, 5 min, pH 7.4, efavirenz 0.01–50 μM, read-out: IC50, inhibition of net OCT1-mediated [14C]-metformin uptake
T1 construct: expressed in transfected cells; host or cells: MDCKII (MDCK-OCT1)
T1 sequence (O15245 1-554): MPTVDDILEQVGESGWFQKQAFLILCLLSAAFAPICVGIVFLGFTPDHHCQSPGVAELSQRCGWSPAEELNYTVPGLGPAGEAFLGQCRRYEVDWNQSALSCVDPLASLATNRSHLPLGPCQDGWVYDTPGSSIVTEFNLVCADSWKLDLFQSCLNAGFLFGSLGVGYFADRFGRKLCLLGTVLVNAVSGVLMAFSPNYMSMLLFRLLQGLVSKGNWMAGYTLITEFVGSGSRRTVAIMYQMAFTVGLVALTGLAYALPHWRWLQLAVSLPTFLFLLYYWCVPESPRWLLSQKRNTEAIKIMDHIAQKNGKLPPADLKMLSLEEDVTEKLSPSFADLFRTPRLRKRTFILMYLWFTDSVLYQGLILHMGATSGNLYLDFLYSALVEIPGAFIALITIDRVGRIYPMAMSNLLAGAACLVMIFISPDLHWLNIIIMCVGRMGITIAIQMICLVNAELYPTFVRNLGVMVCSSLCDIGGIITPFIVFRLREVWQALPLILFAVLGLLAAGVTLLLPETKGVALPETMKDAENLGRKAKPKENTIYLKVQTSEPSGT
Experimental: The singly-transfected OCT1, OCT2, MATE1 or control MDCK cells were seeded on 12-well plates at a density of 0.5 x 10^6 cells per well and cultivated in standard cultivation medium MEM (Gibco) + 10% FBS. Forty-eight hours after seeding, uptake experiments with radiolabelled metformin were performed. Cells were washed with 500 μl pre-warmed HBSS buffer of pH 7.4 (for OCTs) or 8.0 (for MATE1). Solutions of [^14C]-metformin (50 μM) in HBSS buffer of pH 7.4 or 8.0 with or without efavirenz were then added, and the resulting mixtures were left to stand for an accumulation period of 5 minutes. […] After the accumulation period, the solutions were aspirated and the cells were washed three times with 500 μl ice-cold HBSS buffer of pH 7.4 or 8.0 before being lysed with 0.02% sodium dodecyl sulphate (SDS). The intracellular accumulation of radioactivity was detected using a liquid scintillation counter (Tri-Carb 2910 TR Perkin Elmer), and protein concentrations in the cell lysates were measured by the BCA protein assay. Net transporter-mediated uptake was obtained by subtracting the accumulation of metformin in vector control cells from that in drug transporter-overexpressing cells.
A p value of ≤ 0.05 was considered statistically significant. […]

OCT1 [2] = system: OCT1; parameters: method as in PMID 25914645; settings: OCT1-overexpressing KCL2 cells, 50 μM efavirenz; cited from earlier work

Structure (SMILES): O=C1Nc2ccc(Cl)cc2[C@@](C#CC2CC2)(C(F)(F)F)O1 [efavirenz, Efavirenz]
- IC50 (OCT1 [1]): 2.3 µM
- Reduction in tetraethylammonium accumulation (OCT1 [2]): 50.0%
